{
  "source": "patent EP1984014B1",
  "about": "“USE OF TPO PEPTIDE COMPOUNDS AND PHARMACEUTICAL COMPOSITIONS IN THE TREATMENT OF ANEMIA” (Janssen Pharmaceutica NV, priority 2006, dated 2007)",
  "key": {"[1]": {"system": "mice treated with carboplatin", "assay": "Example 3: dosing 1 hour, 1 day or 4 days after carboplatin, anemia in mice", "format": "in vivo, BALB/c mouse", "conditions": "carboplatin alone; surviving mice (2 mice) by Day 12 compared to control groups", "description": "(§1) The effects of PEGylated TPO Compound No. 1 on mice treated with carboplatin were observed. For all examples herein, a 10 mg/ml stock solution of PEGylated TPO Compound No. 1 was prepared in sterile saline. For mixing, the preparation was placed on a gyratory shaker for 15min. at 200 rpm. This method was used to dissolve PEGylated TPO Compound No. 1 without foaming. The stock was filtered using a GV Millex (0.22um) filter. Dosing solutions were then prepared from this stock using sterile saline. The stock and dosing solutions were prepared fresh on the day of use.\nThe effect of PEGylated TPO Compound No. 1 on the duration and severity of anemia following dosing regimens in which PEGylated TPO Compound No. 1 is administered at various times following the carboplatin treatment was observed. For this study, an amount of PEGylated TPO Compound No. 1 was administered to mice, one (1) hour, one (1) day or four (4) days following a carboplatin dose.\n(§2) The groups of mice were treated with either carboplatin or vehicle (Phosphate Buffered Saline, PBS) by ip administration on Days -1 and 0 as delineated below. The optimal dose of carboplatin used to induce thrombocytopenia in the BALB/c mouse strain was previously determined to be a fractionated total dose of 120mg/kg given as two consecutive daily injections (i.e., 2x60mg/kg). One hour (Day 0), one day (Day 1) or four days (Day 4) following the second dose of carboplatin, groups of mice were treated with PEGylated TPO Compound No. 1 (300ug/kg) or vehicle (sterile saline, SS, preservative-free 0.9% sodium chloride) by IV (bolus) injection as delineated in Table 3. The dose was administered on a per-weight basis (100ul/10g body weight).\n(§3) On Days 6, 8, 10 & 12, five mice in each test group were weighed and then euthanised using CO2-asphyxiation and exsanguinations via cardiac puncture. The blood samples were transferred to separate EDTA (lavender-top) microcontainers for hematological evaluation. Groups of control mice (5) were processed on Days 6 & 12. The data are presented graphically as group means + SEM."}, "[2]": {"system": "mice treated with carboplatin", "assay": "Example 2: dosing seven days before and/or 1 hour after carboplatin, hematological parameters in mice", "format": "in vivo, BALB/c mouse", "conditions": "carboplatin alone", "description": "as §1\nThe possibility that PEGylated TPO Compound No. 1 may sensitize bone marrow hematopoietic stem cells of mice to the toxic effects of carboplatin treatment was examined. For this study, a dose of PEGylated TPO Compound No. 1 was administered to the mice seven days prior to the carboplatin dose or immediately after carboplatin treatment. An additional group was treated with PEGylated TPO Compound No. 1 both prior to and after carboplatin administration. The effect of these dosing regimens on hematological parameters was also observed.\nas §2, with “Days 7” for “Days -1”, “and 8” for “and 0”, “2x60mg/kg). Seven days prior to the first carboplatin dose or one (1)” for “2x60mg/kg). One”, “hour after” for “hour (Day 0), one day (Day 1) or four days (Day 4) following”, “Table 2. An additional group” for “Table 3. The dose”, “was treated with PEGylated TPO Compound No. 1 both before (Day 0) and after (Day 8, t=1h) the carboplatin dose. All dosing was performed” for “was administered”\nas §3, with “14, 18, 22 and 26,” for “6, 8, 10 & 12,”, “exsanguination” for “exsanguinations”, “14 and 26.” for “6 & 12.”"}, "[3]": {"system": "mice treated with two rounds of carboplatin", "assay": "Example 5: two rounds of high-dose carboplatin, hematocrit and survival of mice", "format": "in vivo", "conditions": "of the mice not utilized for hematological evaluation; carboplatin alone versus combination therapy", "description": "as §1\nGroups of mice were treated with two rounds of the chemotherapeutic agent (carboplatin) ten days apart, with each round consisting of two consecutive days of carboplatin (i.e., 70 mg/kg/day administered on Days -1 & 0 and Days 10 & 11) as delineated below. The dose of carboplatin utilized for these survival studies exceeded the maximal tolerated dose for mice (i.e., 120 mg/kg; administered as 60 mg/kg/day on 2 consecutive days). One hour following the second dose of carboplatin in each round (i.e., Day 0 and 11) mice were treated with PEGylated TPO Compound No. 1 (100ug/kg) or vehicle (sterile saline, SS, preservative-free 0.9% sodium chloride) by IV (bolus) injection as delineated below. The dose was administered on a per weight basis (100 ul/10g body weight). […]"}, "[4]": {"system": "mice treated with carboplatin", "assay": "Example 1: dose response of PEGylated TPO Compound No. 1 given one day after carboplatin, anemia in mice", "format": "in vivo, BALB/c mouse", "conditions": "carboplatin alone 2x60mg/kg ip; by Day 11", "description": "as §1\nThe effect of PEGylated TPO Compound No. 1 on the duration and severity of anemia following treatment of mice with carboplatin as determined by changes in hemoglobin levels, red blood cell count and hematocrit, was observed. For this study, increasing amounts of PEGylated TPO Compound No. 1 were administered to mice one day following a carboplatin dose to characterize a possible dose-dependent effect on various red blood cell parameters.\n(§4) The groups of mice were treated with either carboplatin or vehicle (Phosphate Buffered Saline, PBS) by intraperitoneal administration on Days -2 and -1 as delineated below. The optimal dose of carboplatin used to induce thrombocytopenia in the BALB/c mouse strain was previously determined to be a fractionated total dose of 120mg/kg given as two consecutive daily injections (i.e., 2x60mg/kg). One day following the second dose of carboplatin, groups of mice were treated with PEGylated TPO Compound No. 1 or vehicle (sterile saline, SS, preservative-free 0.9% sodium chloride) by IV (bolus) injection as delineated in Table 1. The dose was administered on a per-weight basis (100ul/10g body weight).\nas §3, with “5, 7, 9 and 11,” for “6, 8, 10 & 12,”, “hematologic” for “hematological”, “5 and 11.” for “6 & 12.”, “+SEM.” for “+ SEM.”"}, "[5]": {"system": "carboplatin-treated mice", "assay": "Example 4: lower doses (30, 100, 300ug/kg) as survival factor for erythrocyte lineages in carboplatin-treated mice", "format": "in vivo, BALB/c mouse", "conditions": "carboplatin alone; by Day 12", "description": "as §1\nThe ability of PEGylated TPO Compound No. 1 to function as a survival factor for megakaryocyte and erythrocyte lineages in carboplatin-treated mice as determined by changes in hematological parameters was observed. […] In this study, the effect of lower doses of PEGylated TPO Compound No. 1 (i.e., 30, 100 and 300ug/kg) on the survival of erythrocyte lineages was examined to characterize the dose-response for this effect.\nas §4, with “ip” for “intraperitoneal”, “-1” for “-2”, “0” for “-1”, “Approximately one hour” for “One day”, “4.” for “1.”\nas §3, with “8 and” for “8, 10 &”, “hematologic” for “hematological”, “12.” for “12. The data are presented graphically as group means + SEM.”"}},
  "data": [
    {"smiles": "N.N.O=C([O-])C1(C(=O)[O-])CCC1.[Pt+2]", "note": "[carboplatin]", "values": [
      {"measurement": "decreases in hemoglobin levels, RBC counts and hematocrits", "setting": "[1]", "result": "approx. 47%"},
      {"measurement": "lost body weight (average)", "setting": "[2]; between Days 7 and 26", "result": "approximately 4%"},
      {"measurement": "decreases in hemoglobin levels, RBC counts and hematocrits", "setting": "[2]; by Days 18 and 22 compared to control groups", "result": "approx. 18%"},
      {"measurement": "mice that died between days 4 and 18", "setting": "[3]", "result": 7},
      {"measurement": "decrease in hemoglobin levels", "setting": "[4]", "result": "~20", "unit": "%"},
      {"measurement": "decrease in hemoglobin levels", "setting": "[5]", "result": "greater than 25%"}
    ]}
  ]
}
